The source of these data is PubChem BioAssay (NCI).

Test systems include HCC-2998 colon; HL-60(TB) leukemia; BT-549 breast; KM12 colon; UO-31 renal; SK-OV-3 ovarian; ACHN renal; SK-MEL-28 melanoma.
Holding throughout (experiment): inhibition of tumour cell growth, NCI panel, 48 h

Each structure is given as a SMILES string.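 Results reflect a 48-hour exposure of cells in 96-well plates to compound at five concentrations. GI50 marks 50% less growth. Definition used: TGI = concentration required for complete inhibition of growth.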

Turning to `C[C@]12C[C@H](CCCCCCNCCOC(=O)NCCCc3ccc(N(CCCl)CCCl)cc3)C3=C4CCC(=O)C=C4CCC3C1CC[C@@H]2O` (some centres undefined), the GI50 with HCC-2998 colon is 1.81 µM; with HL-60(TB) leukemia, 0.248 µM; with BT-549 breast, 1.6 µM; with KM12 colon, 1.87 µM; in the test with UO-31 renal, 1.27 µM. Besides, the TGI is 3.23 µM in the test on HCC-2998 colon; 0.659 µM with HL-60(TB) leukemia; 3.09 µM in the test with BT-549 breast; > 21.6 µM with KM12 colon; 2.98 µM with UO-31 renal.
On to `CCOC(=O)/C(C=Nc1ccc(-c2nc3ccccc3[nH]2)cc1)=C(/C)O`, for which the GI50 was 22.2 µM in the test with SK-OV-3 ovarian; 18.5 µM in the test with HL-60(TB) leukemia; 10 µM with BT-549 breast; 7.8 µM in the test on KM12 colon; 15.4 µM with ACHN renal; 10.3 µM in the test with UO-31 renal. Also, the TGI with SK-OV-3 ovarian is > 50 µM; in the test with HL-60(TB) leukemia, 44 µM; in the test with BT-549 breast it was 24.9 µM; in the test with KM12 colon, 24 µM; with ACHN renal, 42.4 µM; with UO-31 renal, 31.1 µM.
`CCCCCCCCNc1cc2c3c(c1)CCCN3CCC2`: the GI50 with SK-OV-3 ovarian was 2.36 µM; in the test on HCC-2998 colon it was 5.41 µM; in the test on HL-60(TB) leukemia, 0.33 µM; in the test on SK-MEL-28 melanoma, 3.87 µM; in the test with BT-549 breast it was 2.28 µM; in the test on KM12 colon it was 1.63 µM. The GI50 in the test on ACHN renal is 3.22 µM; with UO-31 renal, 3.17 µM. Also, the TGI in the test on SK-OV-3 ovarian is 7.96 µM; in the test with HCC-2998 colon, 26.8 µM; in the test with HL-60(TB) leukemia, 1.85 µM; in the test with SK-MEL-28 melanoma it was 17.8 µM; in the test with BT-549 breast it was 12.3 µM; in the test with KM12 colon, 10.6 µM. The TGI in the test with ACHN renal and in the test on UO-31 renal was 17.7 µM in each case.
Consider `OC(Cc1ccncc1)C(Cl)(Cl)Cl` (centres undefined), for which the GI50 is > 100 µM with SK-OV-3 ovarian; 0.152 µM in the test with HL-60(TB) leukemia; > 100 µM in the test on SK-MEL-28 melanoma; > 100 µM in the test on BT-549 breast; > 100 µM with KM12 colon; > 100 µM in the test with ACHN renal. Besides, the GI50 in the test on UO-31 renal was > 100 µM. The TGI in the test with SK-OV-3 ovarian was > 100 µM; in the test on HL-60(TB) leukemia, 60.1 µM; with SK-MEL-28 melanoma, > 100 µM; in the test on BT-549 breast it was > 100 µM; in the test on KM12 colon, > 100 µM; in the test on ACHN renal, > 100 µM. Further, in the test on UO-31 renal, the TGI is > 100 µM.
Take `Oc1c(-c2nnc(-c3ccccc3Cl)o2)sc2nnc(-c3ccccc3)c(-c3ccccc3)c12`: the GI50 in the test with SK-OV-3 ovarian is 5.14 µM; in the test with HCC-2998 colon, 5.05 µM; in the test on HL-60(TB) leukemia, 4.16 µM; with SK-MEL-28 melanoma, 16.4 µM; in the test with BT-549 breast, 12.6 µM; in the test with KM12 colon it was 4.36 µM. The figures for the GI50 in the test with ACHN renal and with UO-31 renal were 3.46 µM and 2.38 µM, respectively. For the same molecule, the TGI was > 100 µM in the test on SK-OV-3 ovarian; > 100 µM with HCC-2998 colon; > 100 µM in the test with HL-60(TB) leukemia; > 100 µM in the test on SK-MEL-28 melanoma; > 100 µM in the test with BT-549 breast; 51.3 µM in the test with KM12 colon. The TGI in the test on ACHN renal is 89.7 µM; in the test on UO-31 renal, 8.4 µM.
As to `O.O.[NH-]C1(C(=O)O)CCCC1.[NH-]C1(C(=O)O)CCCC1.[Ni+2]`, the TGI with SK-OV-3 ovarian, in the test with HL-60(TB) leukemia, with SK-MEL-28 melanoma, in the test with BT-549 breast, with KM12 colon and with ACHN renal was > 100 µM throughout. Besides, in the test on UO-31 renal, the TGI is > 100 µM. The GI50 in the test on BT-549 breast and with ACHN renal was > 100 µM in each case.
In the case of `C=C1C(=O)O[C@H]2[C@H]1CC/C(COC(=O)CSCSCC(=O)OC/C1=C/CC[C@@]3(C)O[C@H]3[C@H]3OC(=O)C(=C)[C@@H]3CC1)=C\CC[C@@]1(C)O[C@@H]21`, the GI50 in the test on SK-OV-3 ovarian is 5.1 µM; in the test on HCC-2998 colon it was 1.8 µM; with SK-MEL-28 melanoma it was 1.63 µM; with BT-549 breast it was 1.47 µM; with KM12 colon it was 1.93 µM; in the test on ACHN renal it was 1.33 µM. For the same molecule, in the test on UO-31 renal, the GI50 is 1.27 µM. The TGI came to 16.5 µM in the test with SK-OV-3 ovarian; 3.46 µM with HCC-2998 colon; 3.19 µM in the test on SK-MEL-28 melanoma; 2.91 µM in the test on BT-549 breast; 3.77 µM with KM12 colon; 2.6 µM in the test on ACHN renal. Further, the TGI in the test with UO-31 renal turned out to be 2.56 µM.
As for `CCCCON(OC(=O)c1ccc2ccccc2c1)C(=O)c1ccccc1`, the GI50 in the test with SK-OV-3 ovarian is > 100 µM; in the test on HCC-2998 colon, > 100 µM; with HL-60(TB) leukemia it was 91 µM; with SK-MEL-28 melanoma, > 100 µM; in the test on BT-549 breast, 92.3 µM; with KM12 colon it was > 100 µM. The GI50 is > 100 µM in the test with ACHN renal and 53.1 µM with UO-31 renal. The TGI in the test on SK-OV-3 ovarian, with HCC-2998 colon, with HL-60(TB) leukemia, in the test on SK-MEL-28 melanoma, in the test on BT-549 breast and in the test with KM12 colon was > 100 µM each time. The TGI in the test on ACHN renal and in the test with UO-31 renal was > 100 µM in each case.
With `N=C1C(c2nc3ccccc3s2)=C(O)CN1c1ccc(F)c(Cl)c1`, the GI50 with SK-OV-3 ovarian was 25.3 µM; in the test with HCC-2998 colon it was 61.7 µM; with HL-60(TB) leukemia, > 100 µM; in the test on SK-MEL-28 melanoma, 33.3 µM; in the test with BT-549 breast it was 30.2 µM; in the test on KM12 colon it was 73.9 µM. Also, the results for the GI50 in the test on ACHN renal and with UO-31 renal were 17.4 µM and 14.7 µM, respectively. Besides, the TGI in the test with SK-OV-3 ovarian, in the test on HCC-2998 colon, in the test with HL-60(TB) leukemia, in the test on SK-MEL-28 melanoma, in the test on BT-549 breast and with KM12 colon was > 100 µM throughout. Besides, the values for the TGI with ACHN renal and in the test on UO-31 renal were 57.8 µM and 35.8 µM, respectively.
For `O=c1[nH]c(=O)c2cn[nH]c2[nH]1`, the GI50 in the test with SK-OV-3 ovarian, in the test with HCC-2998 colon, in the test on HL-60(TB) leukemia, with SK-MEL-28 melanoma, in the test on BT-549 breast and in the test with KM12 colon was > 100 µM throughout. Besides, the GI50 in the test with ACHN renal and in the test with UO-31 renal was > 100 µM throughout. For the same molecule, the TGI in the test with SK-OV-3 ovarian, with HCC-2998 colon, with HL-60(TB) leukemia, in the test with SK-MEL-28 melanoma, with BT-549 breast and with KM12 colon was > 100 µM in each case. Also, the TGI in the test with ACHN renal and with UO-31 renal was > 100 µM throughout.
